Source: publication PMC10892041, “Vanadium Complexes with Thioanilide Derivatives of Amino Acids: Inhibition of Human Phosphatases and Specificity in Various Cell Models of Metabolic Disturbances” (Pharmaceuticals, 2024)
pIC50: −log10 of the molar value. Where two headings read alike, the source gives them in different places.

Assays:
myocytes C2C12 = assay: Viability of myocytes C2C12 after 24 h incubation (resazurin-based reagent); conditions: 50 µM; 24 h incubation; control solvent only
PTP1B = biological target: T1, PTP1B (Homo sapiens, UniProt P18031); conditions: cited from earlier work
T1 construct: purchased Sigma-Aldrich
T1 sequence (P18031 1-435): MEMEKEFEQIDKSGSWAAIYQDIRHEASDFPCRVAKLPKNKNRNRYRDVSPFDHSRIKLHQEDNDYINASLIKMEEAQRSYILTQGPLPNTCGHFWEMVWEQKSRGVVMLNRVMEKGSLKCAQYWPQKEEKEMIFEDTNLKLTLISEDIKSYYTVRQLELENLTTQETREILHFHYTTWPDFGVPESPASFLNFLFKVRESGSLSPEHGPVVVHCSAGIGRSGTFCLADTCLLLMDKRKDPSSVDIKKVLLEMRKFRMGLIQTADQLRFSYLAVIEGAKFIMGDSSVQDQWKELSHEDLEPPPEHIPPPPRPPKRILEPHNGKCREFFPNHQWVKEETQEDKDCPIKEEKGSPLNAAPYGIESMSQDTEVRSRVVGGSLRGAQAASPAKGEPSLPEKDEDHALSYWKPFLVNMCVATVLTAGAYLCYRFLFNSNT

SMILES | Cell viability of myocytes C2C12, % of the control (myocytes C2C12) | pIC50 (PTP1B; lower end of published range) | pIC50 (PTP1B; upper end of published range)
Cc1occc(=O)c1[O-].Cc1occc(=O)c1[O-].[O]=[V+2] [BMOV, bis(maltolato)oxidovanadium(IV), reference compound] | 90 ± 4% |  | 
O=S(=O)([O-])[O-].[O]=[V+2] [VOSO4, reference compound] |  | 7.74 | 6.42
